Results: BindingDB's records for doi:10.1016/j.bmcl.2006.04.082 (Pharmacopeia Drug Discovery, 2006)

Biological target: T1, C-X-C chemokine receptor type 2 (Homo sapiens, UniProt P25025)
T1 sequence (P25025 whole entry): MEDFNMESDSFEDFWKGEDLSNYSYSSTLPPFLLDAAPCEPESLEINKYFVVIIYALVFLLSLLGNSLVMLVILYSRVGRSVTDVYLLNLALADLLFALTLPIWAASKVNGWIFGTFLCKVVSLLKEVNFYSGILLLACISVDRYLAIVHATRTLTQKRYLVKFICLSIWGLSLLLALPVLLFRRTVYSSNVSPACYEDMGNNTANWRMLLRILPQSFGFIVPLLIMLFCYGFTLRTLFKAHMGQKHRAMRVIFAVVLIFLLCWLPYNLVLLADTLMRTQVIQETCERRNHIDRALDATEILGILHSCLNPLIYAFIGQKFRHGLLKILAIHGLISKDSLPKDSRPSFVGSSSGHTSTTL
Assay: Displacement of [125I]IL8 from human CXCR2 expressed in CHO cells

SMILES | IC50
CC(C)Nc1c(Nc2cccc(C(=O)N(C)C)c2O)c(=O)c1=O [2-hydroxy-3-(2-(isopropylamino)-3,4-dioxocyclobut-1-enylamino)-N,N-dimethylbenzamide] | 10 nM
CN(C)C(=O)c1cccc(Nc2c(NC3CCCCC3)c(=O)c2=O)c1O [3-(2-(cyclohexylamino)-3,4-dioxocyclobut-1-enylamino)-2-hydroxy-N,N-dimethylbenzamide] | 10 nM
